Source: patent publication US7491849B2, “Oligoamine compounds and derivatives thereof for cancer therapy” (priority 2001, dated 2009)

Legend:
DU145 = experiment: MTT assay, tumor cell growth, DU145; type: cell-based; conditions: 6 days incubation, read-out: ID50 (μM) values for Human Tumor Cell Lines, DU145
Procedure: Effect of Saturated Oligoamines on Human Prostate Tumor Cell Growth by the MTT assay. Saturated oligoamines inhibited prostate cancer cell growth in vitro. DU-145 cells were most sensitive and PC-3 cells were less sensitive to the effects of oligoamines. In general, ID50 values of less than 0.5 μM were obtained (Table 2). Even though the PC-3 cells were relatively more resistant to the oligoamines, at a 5 μM concentration the oligoamines reduced the cell number to less than 1% of the control on day 6 of incubation. Tissue cultures and the MTT assay were performed as follows.
Tissue Culture. Cells were seeded into 75 cm^2 culture flasks with 15 ml of Eagle's minimal essential medium supplemented with 10% fetal calf serum and nonessential amino acids. The flasks were incubated in a humidified 95% air/5% CO2 atmosphere. The cells were grown for at least 24 h to ensure that they are in the log phase of growth and then they were treated with the oligoamines. Cells were harvested by treatment for 5 min with STV (saline A, 0.05% trypsin, 0.02% EDTA) at 37° C. The flasks were rapped on the lab bench, pipetted several times and aliquots of cell suspension were withdrawn and counted using a Coulter particle counter that has been standardized for counting each cell line using a hemacytometer.
MTT Assay: Trypsinized cell suspensions were diluted to seed 80 μl suspensions containing 500 cells in each well of a 96 well Corning microtiter plate and incubated overnight at 37° C. in a humidified incubator in 5% CO2. 20 μl of appropriately diluted stock solution of each drug were added to the middle 8 columns of cell suspension in the microtiter plates. Each drug concentration was run in quadruplicate. Outer columns of the plates were used for buffer controls. Cells were incubated with the drug for 6 days at 37° C. in 5% CO2/H2O atmosphere. 25 μl of 5 mg/ml solution of 3-(4,5-dimethylthiazol-2-yl)-2,5-diphenyl tetrazolium bromide (MTT) were added to each well and incubated for 4 hours at 37° C. in 5% CO2/H2O incubator. Cells were lysed by incubating overnight with 100 μl lysis buffer (500 ml of the lysis buffer contains: 100 g lauryl sulfate (SDS), 250 ml of N,N-dimethylformamide, and 2 ml of glacial acetic acid, made up to volume with water; pH 4.8).
The color was monitored at room temperature at 570 nm in a E-max Precision Microplate Reader (Molecular Devices Corporation, Sunnyvale, Calif.) and data was analyzed using cell survival software supplied by Molecular Devices Corporation.

[1] = test system: DU-145 human prostate tumor xenografts; experiment: Subcutaneous DU-145 prostate tumor xenograft in mice; type: in vivo, male NCr-nu mice; conditions: for Days Delay (T-C) / Non-Specific Deaths/Total / Tumor Free Survival/Total / Tumor Regression, Number of Complete / Tumor Regression, Number of Partial / Days to 4 Doublings / % T/C, Day 21 (median tumor weight) / % T/C, Day 35 (median tumor weight) / median tumor growth delay [(T-C)/C x 100] / tolerability / deaths: 6.25 mg/kg IV; for Days Delay (T-C) / Non-Specific Deaths/Total / Tumor Free Survival/Total / Tumor Regression, Number of Complete / Tumor Regression, Number of Partial / Days to 4 Doublings / % T/C, Day 21 (median tumor weight) / % T/C, Day 35 (median tumor weight): Q1D x 5 day 14, 28; for Days to 4 Doublings: control 17.1; for % T/C, Day 21 (median tumor weight): three days after first round; for % T/C, Day 35 (median tumor weight): three days after second round; for median tumor growth delay [(T-C)/C x 100]: two rounds, statistically significant; for antitumor activity (summary): at a dosage which was well tolerated (6.25 mg/kg IV)
Procedure: Response of implanted sc DU-145 prostate tumors to treatment with SL-11159 and SL-11226. This experiment evaluates the antitumor efficacy of SLIL Biomedical Corporation compounds (SL-11159, SL-11226) against subcutaneously-implanted DU-145 human prostate tumor xenografts in male NCr-nu (line 3A10F17T1) mice. All compounds were tested at a single dose level when administered intravenously (iv), at 6.25 mg/kg. Both SL-11159 and SL-11226 were prepared in water for injection (soluble); the injection volume was 0.1 mL/10 g body weight.
All compounds were administered for two rounds of five daily treatments with a nine-day rest period between the rounds. The control group was treated with vehicle (water for injection) for two rounds on a Q1D×5 schedule. There were sixteen mice in the control group and eight mice in each of the treatment groups. All treatments were initiated on day 14 postimplant when all mice had established tumors ranging in size from 75 to 198 mg. The experiment was terminated on day 53 after tumor implantation. The individual animal's time to reach the evaluation size (time to reach four doublings) was used in the calculations of the median tumor growth delay [(T−C)/C×100, %] and as the endpoint in a life tables analysis (stratified Kaplan-Meier estimation followed by the Mantel-Haenszel log-rank test) in order to statistically compare the growth data between groups (see Table 5; group 1 is the control group, group 2 was treated with SL-11159, group 3 was treated with SL-11226).
The time required for a tumor to double in mass is calculated based on the initial tumor weight at the beginning of the treatment period. When the initial tumor weight has been selected, tumor weights are then examined, beginning with the last recorded value, until a doubling is calculated. Examination from the last recorded value is to ensure that the doubling time is calculated during the final phase of tumor growth and not prior to a tumor regression. Values between measurements are calculated by exponential […], and a value may be estimated after the final measured weight provided the extrapolated value occurs prior to the animal's death.)
Control tumors grew well in fourteen out of sixteen mice. There was one xenograft failure (no-take). One animal died during the second round of the vehicle treatment, on day 29, with a tumor weight of 770 mg. Tumors reached the evaluation size of four mass doublings in 17.1 days, which covers the period of the first round of treatment and three days of the second round of treatment. The effect of each round of treatment was evaluated by the comparison of the median tumor weight of the treated groups on days 21 or 35 (three days after the end of the first or the second round of treatment, respectively) to the median tumor weight of the control group on the same day (T/C×100%, see Table 4A).
Tumor regression was scored (excluding nonspecific deaths), according to the smallest tumor size attained after the beginning of treatment relative to the size at first treatment: • partial: <50 percent of its size at 1 st rx, but not complete. • complete: tumor becomes unpalpable.
Duration of regression: the interval during which a tumor classified as a partial or complete regressor was below 50 percent of its size at first treatment.
Evaluation size: this value is the tumor mass selected at four mass doublings beginning with the initial tumor size at the start of treatment.
T−C (days): the difference in the median of times postimplant for tumors of the treated groups to attain an evaluation size compared to the median of the control group.

Calf-thymus DNA = Calf-thymus DNA aggregation (absorbance at 320 nm); type: biochemical; conditions: 50 mM NaCl, 1 mM Na-cacodylate pH 7.0
Procedure: Calf-thymus DNA aggregation by spermine and oligoamines.
Test for DNA Aggregation: DNA aggregation was studied using a Perkin-Elmer Lambda 25 UV/visible spectrophotometer connected to a PTP 6 heating unit using a previously published procedure (see Basu, H S and Marton, L J, “The interaction of spermine and pentamines with DNA,” Biochemical Journal 244:243-246 (1987)). Aggregation was determined in 50 mM NaCl, 1 mM Na-cacodylate pH 7.0 buffer by observing the increase in DNA absorbance (approximately 0.5 A260 units) at 320 nm.

SMILES: CCNCCCCNCCCCNCCCCNCCCCNCCCCNCCCCNCCCCNCCCCNCCCCNCC.Cl.Cl.Cl.Cl.Cl.Cl.Cl.Cl.Cl.Cl [SL-11159]
- IC50 (DU145): 0.15 µM
- Days Delay (T-C) [1]: >6.9 days
- Non-Specific Deaths/Total [1]: 1/8
- Tumor Free Survival/Total [1]: 0/8
- Tumor Regression, Number of Complete [1]: 0
- Tumor Regression, Number of Partial [1]: 0
- Days to 4 Doublings [1]: >24.0 days
- % T/C, Day 21 (median tumor weight) [1]: 65%
- % T/C, Day 35 (median tumor weight) [1]: 63%
- median tumor growth delay [(T-C)/C x 100] [1]: > 40%
- antitumor activity (summary) [1]: measurable antitumor activity
- tolerability / deaths ([1]; first round of treatment): well tolerated without deaths
- tolerability / deaths ([1]; second round of treatment): death of one animal
- Conc. (μM) at the start of DNA Aggregation (Calf-thymus DNA): 2.5 µM

SMILES: CCNCCCCNCCCCNCCCCNCCCCNCCCCNCCCCNCCCCNCCCCNCCCCNCCCCNCCCCNCC.Cl.Cl.Cl.Cl.Cl.Cl.Cl.Cl.Cl.Cl.Cl.Cl [SL-11226]
- IC50 (DU145): 0.08 µM
- Days Delay (T-C) [1]: >6.4 days
- Non-Specific Deaths/Total [1]: 0/8
- Tumor Free Survival/Total [1]: 0/8
- Tumor Regression, Number of Complete [1]: 0
- Tumor Regression, Number of Partial [1]: 0
- Days to 4 Doublings [1]: >23.5 days
- % T/C, Day 21 (median tumor weight) [1]: 46%
- % T/C, Day 35 (median tumor weight) [1]: 61%
- median tumor growth delay [(T-C)/C x 100] [1]: > 37%
- antitumor activity (summary) [1]: measurable antitumor activity
- tolerability / deaths ([1]; whole treatment (two rounds)): well tolerated without deaths
- Conc. (μM) at the start of DNA Aggregation (Calf-thymus DNA): 2.2 µM
